structure (smiles),measurement,setting,value
CC(C(=O)O)c1ccc2c(c1)[nH]c1ccc(Cl)cc12 (stereo not given),solubility (mole fraction),"in acetic acid, 288.15 K",0.00687
same,solubility (mole fraction),"in acetic acid, 293.15 K",0.00706
same,solubility (mole fraction),"in acetic acid, 298.15 K",0.00863
same,solubility (mole fraction),"in acetic acid, 303.15 K",0.00998
same,solubility (mole fraction),"in acetic acid, 308.15 K",0.0126
same,solubility (mole fraction),"in acetic acid, 313.15 K",0.0174
same,solubility (mole fraction),"in acetic acid, 318.15 K",0.0216
same,solubility (mole fraction),"in acetic acid, 323.15 K",0.0268
same,solubility (mole fraction),"in ethylene glycol, 288.15 K",0.00349
same,solubility (mole fraction),"in ethylene glycol, 293.15 K",0.00433
same,solubility (mole fraction),"in ethylene glycol, 298.15 K",0.00585
same,solubility (mole fraction),"in ethylene glycol, 303.15 K",0.00715
same,solubility (mole fraction),"in ethylene glycol, 308.15 K",0.00861
same,solubility (mole fraction),"in ethylene glycol, 313.15 K",0.0117
same,solubility (mole fraction),"in ethylene glycol, 318.15 K",0.0168
same,solubility (mole fraction),"in ethylene glycol, 323.15 K",0.0194
same,solubility (mole fraction),"in formic acid, 288.15 K",0.000435
same,solubility (mole fraction),"in formic acid, 293.15 K",0.000547
same,solubility (mole fraction),"in formic acid, 298.15 K",0.00074
same,solubility (mole fraction),"in formic acid, 303.15 K",0.00116
same,solubility (mole fraction),"in formic acid, 308.15 K",0.00146
same,solubility (mole fraction),"in formic acid, 313.15 K",0.00201
same,solubility (mole fraction),"in formic acid, 318.15 K",0.00287
same,solubility (mole fraction),"in formic acid, 323.15 K",0.00388
same,solubility (mole fraction),"in glycerin, 288.15 K",0.000115
same,solubility (mole fraction),"in glycerin, 293.15 K",0.000147
same,solubility (mole fraction),"in glycerin, 298.15 K",0.000209
same,solubility (mole fraction),"in glycerin, 303.15 K",0.000301
same,solubility (mole fraction),"in glycerin, 308.15 K",0.000437
same,solubility (mole fraction),"in glycerin, 313.15 K",0.00052
same,solubility (mole fraction),"in glycerin, 318.15 K",0.000851
same,solubility (mole fraction),"in glycerin, 323.15 K",0.00133
same,solubility (mole fraction),"in isobutanol, 288.15 K",0.00942
same,solubility (mole fraction),"in isobutanol, 293.15 K",0.0103
same,solubility (mole fraction),"in isobutanol, 298.15 K",0.0137
same,solubility (mole fraction),"in isobutanol, 303.15 K",0.0177
same,solubility (mole fraction),"in isobutanol, 308.15 K",0.0243
same,solubility (mole fraction),"in isobutanol, 313.15 K",0.0287
same,solubility (mole fraction),"in isobutanol, 318.15 K",0.0357
same,solubility (mole fraction),"in isobutanol, 323.15 K",0.0432
same,solubility (mole fraction),"in isopropanol, 288.15 K",0.0145
same,solubility (mole fraction),"in isopropanol, 293.15 K",0.0179
same,solubility (mole fraction),"in isopropanol, 298.15 K",0.0267
same,solubility (mole fraction),"in isopropanol, 303.15 K",0.031
same,solubility (mole fraction),"in isopropanol, 308.15 K",0.0359
same,solubility (mole fraction),"in isopropanol, 313.15 K",0.0436
same,solubility (mole fraction),"in isopropanol, 318.15 K",0.048
same,solubility (mole fraction),"in isopropanol, 323.15 K",0.0601
same,solubility (mole fraction),"in n-butanol, 288.15 K",0.014
same,solubility (mole fraction),"in n-butanol, 293.15 K",0.0174
same,solubility (mole fraction),"in n-butanol, 298.15 K",0.0243
same,solubility (mole fraction),"in n-butanol, 303.15 K",0.0283
same,solubility (mole fraction),"in n-butanol, 308.15 K",0.0346
same,solubility (mole fraction),"in n-butanol, 313.15 K",0.0389
same,solubility (mole fraction),"in n-butanol, 318.15 K",0.0441
same,solubility (mole fraction),"in n-butanol, 323.15 K",0.0526
same,solubility (mole fraction),"in n-octanol, 288.15 K",0.0143
same,solubility (mole fraction),"in n-octanol, 293.15 K",0.0177
same,solubility (mole fraction),"in n-octanol, 298.15 K",0.0248
same,solubility (mole fraction),"in n-octanol, 303.15 K",0.0295
same,solubility (mole fraction),"in n-octanol, 308.15 K",0.035
same,solubility (mole fraction),"in n-octanol, 313.15 K",0.0391
same,solubility (mole fraction),"in n-octanol, 318.15 K",0.0448
same,solubility (mole fraction),"in n-octanol, 323.15 K",0.0537
same,solubility (mole fraction),"in n-propanol, 288.15 K",0.0157
same,solubility (mole fraction),"in n-propanol, 293.15 K",0.0195
same,solubility (mole fraction),"in n-propanol, 298.15 K",0.0315
same,solubility (mole fraction),"in n-propanol, 303.15 K",0.0378
same,solubility (mole fraction),"in n-propanol, 308.15 K",0.0418
same,solubility (mole fraction),"in n-propanol, 313.15 K",0.0507
same,solubility (mole fraction),"in n-propanol, 318.15 K",0.0598
same,solubility (mole fraction),"in n-propanol, 323.15 K",0.0743
same,solubility (mole fraction),"in propylene glycol, 288.15 K",0.0055
same,solubility (mole fraction),"in propylene glycol, 293.15 K",0.0069
same,solubility (mole fraction),"in propylene glycol, 298.15 K",0.00753
same,solubility (mole fraction),"in propylene glycol, 303.15 K",0.00936
same,solubility (mole fraction),"in propylene glycol, 308.15 K",0.0121
same,solubility (mole fraction),"in propylene glycol, 313.15 K",0.0153
same,solubility (mole fraction),"in propylene glycol, 318.15 K",0.0183
same,solubility (mole fraction),"in propylene glycol, 323.15 K",0.0223

# Reference: BigSolDB 2.1
